Data published in PMC6030563, “Type 2 NADH Dehydrogenase Is the Only Point of Entry for Electrons into the Streptococcus agalactiae Respiratory Chain and Is a Potential Drug Target” (mBio, 2018).

Assays:
S. agalactiae NDH-2 [1] = target: T1, S. agalactiae NDH-2 (Streptococcus agalactiae, UniProt Q8E3H1); assay: Inhibition of isolated NDH-2 NADH:quinone oxidoreductase activity (FDA-approved drug library screen and IC50); conditions: for inhibition at 25 µM: read-out: inhibition of enzymatic activity
T1 sequence (Q8E3H1 2-402 limits assumed): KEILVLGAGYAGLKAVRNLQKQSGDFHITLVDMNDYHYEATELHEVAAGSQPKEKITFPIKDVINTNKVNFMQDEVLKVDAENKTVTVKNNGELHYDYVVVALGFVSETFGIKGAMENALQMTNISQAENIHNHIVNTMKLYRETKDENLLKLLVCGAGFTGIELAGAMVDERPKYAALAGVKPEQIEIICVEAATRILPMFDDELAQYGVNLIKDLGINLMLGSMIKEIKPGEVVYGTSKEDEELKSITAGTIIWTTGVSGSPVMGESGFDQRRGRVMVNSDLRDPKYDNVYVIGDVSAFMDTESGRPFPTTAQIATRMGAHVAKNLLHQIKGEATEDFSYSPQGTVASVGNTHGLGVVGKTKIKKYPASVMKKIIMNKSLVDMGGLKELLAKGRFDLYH

S. agalactiae cells = assay: Inhibition of cell growth overnight under respiration permissive conditions (GI50); type: cell-based, Streptococcus agalactiae; conditions: for GI50: Streptococcus agalactiae, overnight growth, respiration permissive conditions, read-out: GI50 (concentration that causes 50% inhibition of cell growth); for effect on cell growth: whole cells growing under respiration permissive conditions
S. agalactiae NDH-2 [2] = target: T1, S. agalactiae NDH-2; assay: NDH-2 enzyme activity and kinetic parameters with NADH and soluble quinone analogues; type: biochemical
Procedure: The rate of NADH oxidation was determined using a UV-Vis spectrophotometer (Agilent Technologies model 8453) by monitoring absorbance at 340 nm (NADH oxidation) upon addition of 100 µM NADH in the presence of 2 nM enzyme and a 100 µM concentration of a quinone soluble analogue. Assays were performed at 37°C in buffer B (50 mM sodium phosphate buffer [pH 7], 150 mM NaCl) plus 125 µg ml^−1 of soy asolectin (Sigma) and 20 µM FAD. For determination of kinetic constants, 2 to 200 µM NADH and 2 to 200 µM of DMN were added to the reaction mixture containing 2 nM enzyme. Enzyme rates are expressed as a turnover number (kcat) based on moles of NADH oxidized per second per mole of enzyme.

S. aureus NdhC = tested on: S. aureus NdhC; set-up: method as in PMID 24709059; conditions: cited from earlier work
Streptococcus mutans = tested on: Streptococcus mutans; set-up: method as in PMID 28087617; conditions: cited from earlier work
S. agalactiae WT cells = conditions: Streptococcus agalactiae, read-out: inhibition of respiration (oxygen consumption)
[3] = tested on: S. agalactiae Δnox2 strain; assay: Overnight growth and oxygen consumption of the Δnox2 strain with zafirlukast
Porphyromonas gingivalis = tested on: Porphyromonas gingivalis; set-up: method as in PMID 28087617; conditions: cited from earlier work
M. tuberculosis = tested on: M. tuberculosis; set-up: method as in PMID 23439641; conditions: cited from earlier work

With `Oc1c(Cl)cc(Cl)c(Cl)c1Cc1c(O)c(Cl)cc(Cl)c1Cl` [hexachlorophene] the “inhibition of enzymatic activity” value (S. agalactiae NDH-2 [1]; 25 µM each compound, pure enzyme, NADH and menadione) was “at least 80%”.
In the case of `CCCCC(CC)CNC(=N)NC(=N)NCCCCCCNC(=N)NC(=N)NCC(CC)CCCC` (stereo not shown) [Alexidine], the IC50 (S. agalactiae NDH-2 [1]) is reported as 16.8 ± 1.26 µM, the inhibition at 25 µM (S. agalactiae NDH-2 [1]) is reported as no less than 80% and the GI50 (S. agalactiae cells) is reported as 2.7 ± 0.51 µM.
`CC[C@H](C)C[C@H](C)CCCCCCCCC(=O)N[C@H]1C[C@@H](O)[C@@H](NCCN)NC(=O)[C@@H]2[C@@H](O)CCN2C(=O)[C@H]([C@H](O)CCN)NC(=O)[C@H]([C@H](O)[C@@H](O)c2ccc(O)cc2)NC(=O)[C@@H]2C[C@@H](O)CN2C(=O)[C@H]([C@@H](C)O)NC1=O` [Caspofungin] gave an IC50 (S. agalactiae NDH-2 [1]) of 15.2 ± 2.33 µM, an inhibition at 25 µM (S. agalactiae NDH-2 [1]) of no less than 80% and a GI50 (S. agalactiae cells) of 41 ± 2.62 µM.
In the case of `CCOc1nc2cccc(C(=O)O)c2n1Cc1ccc(-c2ccccc2-c2nnn[nH]2)cc1` [candesartan], the inhibition at 25 µM (S. agalactiae NDH-2 [1]) is reported as no less than 80% and the “effect on cell growth” value (S. agalactiae cells) is reported as “no effect on cell growth”.
With `COC1=C(OC)C(=O)C(CC=C(C)C)=C(C)C1=O` [Q1, ubiquinone-1] the “enzyme activity corresponding to 100% (NADH oxidation)” value (S. agalactiae NDH-2 [2]; 100 µM quinone analogue, 100 µM NADH, Fig. 2C) was 4,190 NADH s^−1.
In the case of `CCCCOc1ccc(OCCCN2CCOCC2)cc1` [pramoxine], the inhibition at 25 µM (S. agalactiae NDH-2 [1]) is reported as no less than 80% and the “effect on cell growth” value (S. agalactiae cells) is reported as “no effect on cell growth”.
For `CSc1nc2cc(Cl)c(Oc3cccc(Cl)c3Cl)cc2[nH]1` [Triclabendazole], the IC50 (S. agalactiae NDH-2 [1]) was 0.14 ± 0.02 µM, the inhibition at 25 µM (S. agalactiae NDH-2 [1]) was no less than 80% and the GI50 (S. agalactiae cells) was 15.3 ± 1.92 µM.
In the case of `Cc1cc(C(C#N)c2ccc(Cl)cc2)c(Cl)cc1NC(=O)c1cc(I)cc(I)c1O` (stereo not shown) [Closantel], the IC50 (S. agalactiae NDH-2 [1]) is reported as 5.34 ± 0.65 µM, the inhibition at 25 µM (S. agalactiae NDH-2 [1]) is reported as no less than 80% and the GI50 (S. agalactiae cells) is reported as 0.25 ± 0.04 µM.
In the case of `CSc1ccc2c(c1)N(CCC1CCCCN1C)c1ccccc1S2` (stereo not shown) [thioridazine], the “inhibitory effect on S. aureus NdhC” value (S. aureus NdhC) is given as “strong inhibitory effect”.
For `CC1=C(C)C(=O)c2ccccc2C1=O` [DMN, 2,3-dimethyl-1,4-naphthoquinone], the turnover number (S. agalactiae NDH-2 [2]; with DMN as electron acceptor) was “about 800 NADH/s^−1”.
`COc1cc(C(=O)NS(=O)(=O)c2ccccc2C)ccc1Cc1cn(C)c2ccc(NC(=O)OC3CCCC3)cc12` [Zafirlukast] showed an IC50 (S. agalactiae NDH-2 [1]) of 0.83 ± 0.07 µM, an inhibition at 25 µM (S. agalactiae NDH-2 [1]) of no less than 80% and a GI50 (S. agalactiae cells) of 6.07 ± 0.1 µM. The “activity against Streptococcus mutans” value (Streptococcus mutans) was “antibacterial and antibiofilm activity”, the inhibition at 7.5 µM (S. agalactiae WT cells) was 90% and the “growth under respiration permissive compared to nonpermissive conditions” value ([3]; Δnox2 strain grown overnight with 7.5 µM zafirlukast (~GI50)) was “does not exhibit enhanced growth”. The “oxygen utilization compared to cells grown in the absence of zafirlukast” value ([3]; Δnox2 strain grown overnight with 7.5 µM zafirlukast, respiration permissive) was “substantially lower”, the “activity against Porphyromonas gingivalis” value (Porphyromonas gingivalis) was “antibacterial and antibiofilm activity” and the “activity against M. tuberculosis” value (M. tuberculosis) was “bactericidal activity”.
In the case of `CN1CCN(CCCN2c3ccccc3Sc3ccc(C(F)(F)F)cc32)CC1` [trifluoperazine], the “inhibition of S. agalactiae NDH-2” value (S. agalactiae NDH-2 [1]) is listed as “not inhibited” and the “inhibitory effect on S. aureus NdhC” value (S. aureus NdhC) is listed as “strong inhibitory effect”.
In the case of `NC(=O)C1=CN([C@@H]2O[C@H](COP(=O)(O)OP(=O)(O)OC[C@H]3O[C@@H](n4cnc5c(N)ncnc54)[C@H](O)[C@@H]3O)[C@@H](O)[C@H]2O)C=CC1` [NADH], the Km (S. agalactiae NDH-2 [2]; 2 nM enzyme, 2 to 200 µM NADH and DMN, 37°C, pH 7, read-out: Km for the enzyme's substrates) is reported as 11 µM.
In the case of `O=c1c(O[C@@H]2O[C@H](CO)[C@@H](O)[C@H](O)[C@H]2O)c(-c2ccc(O)c(O)c2)oc2cc(O)cc(O)c12` [isoquercetin], the inhibition at 25 µM (S. agalactiae NDH-2 [1]) is reported as no less than 80% and the “effect on cell growth” value (S. agalactiae cells) is reported as “no effect on cell growth”.
